According to EP0324328B1, “Use of the N-n-butyl derivative of desoxynojirimycin in the manufacture of a medicament inhibiting HIV-Virus” (priority 1987, dated 1989):
Read-outs that look alike come from different tables or passages of the source.

Experiments:
[1] = system: T-45 cells; type: cell-based, human; conditions: for Estimated Cell Growth Virus-uninfected Day 7: no-drug control 1.2x10^6; for cytotoxicity: non-infected cells, over the concentration range used (Fig. 3, Table 1), result in words
Procedure: FIG. 1 is a schematic outline of the test procedure used to assess the cytotoxic effect of test compounds on T-cells either infected or non-infected with HIV and in parallel the HIV inhibitory activity of the test compounds. TCID is the tissue culture infectious dose. Cells were cultured in RPMI-1640 medium with 10% fetal calf serum containing 100 units/ml penicillin G and 100 µg/ml streptomycin.
The assay was run in 96 well plastic microtiter plates in which 0.2 ml of culture medium containing 10^4 T-cells are seeded into each well. RPMI-1640 supplemented with 10% fetal calf serum was used as the culture medium. In each assay, 6 wells are used. Three (1-3) are infected with 10^4 TCID/well of HIV-1 or HIV-2 and to the other three (4-6) culture medium alone is added. Medium is changed at the same intervals for each test compound. The detailed assay procedure is illustrated in Figures 1 and 2.
The efficacy of the test compounds used in this example was assessed as follows: 0.2 ml of culture medium containing 10^4 T-45 cells were transferred into each well of a 96-well flat-bottomed tissue-culture plastic plate and the cells were allowed to settle at 37°C (see Figure 1). After 4 hours the media were aspirated and replaced with media which contained the test compound. Following overnight incubation the media was aspirated and 10^4 TCID of virus (HIV-1 or HIV-2) was added to each well. Incubation was continued at 37°C in 5% CO2 for 1 hour. Thereafter, growth media containing the various compounds were added and incubation at 37°C was continued. On the fourth day the cell suspensions from each well were split and seeded into two new wells and 0.2 ml of fresh media with compounds was added. This was repeated on the seventh day. Cells were examined by microscopy during days 1 to 10 for the presence of syncytia, growth rate and the appearance of the cytopathic effect (CPE) (giant cells, pycnotic nuclei, loss of refractility). CPE (100%) was defined as no round, refractile, uniform cells remaining; only giant, ballooned pyknotic cells were present. The viability of HIV infected cultures was determined by a rough count/estimate of cells which underwent CPE in relation to round refractile uniform (normal) cells in a given culture.
Quantitative data on the effect of the various compounds on the non-infected cells (cytotoxicity) was obtained by comparison of their growth rate to control cells not exposed to drugs (Table 1). […] In addition, the MOLT-4 cell line was also used.

[2] = system: HIV-1; assay: Time to develop CPE after transfer of HIV-1 infected cells to drug-free medium; type: cell-based
Procedure: FIG. 2 is a schematic outline of the test procedure used to determine the relative proportion of HIV-infected cells in cultures containing 0.1 mg/ml of the inhibitory test compound. At various times aliquots of the infected cell suspensions were transferred to inhibitor-free medium and the time taken for the cells to develop cytopathic effect (CPE) was recorded.
After 55 days of culture (O) in the presence of drug no virus appeared during 100 additional days of culture in the absence of drug (after removal of drug).
To determine if there was a gradual reduction of HIV-infected cells in cultures maintained with BuDNJ, aliquots of cells infected with 10^4 TCID of HIV-1 and grown in the presence of 0.1 mg/ml BuDNJ for varying lengths of time were transferred to separate wells and grown in drug-free medium as indicated in […]. The cultures were then monitored for development of CPE, indicative of active HIV replication. The times for the appearance of an advanced CPE were recorded. […]
In order to determine whether or not there was an actual reduction in HIV-infected cells in the presence of BuDNJ, aliquots of the infected cell suspension, grown for varying times in the presence or drug, where transferred to drug-free medium as outlined in Figure 2. The cultures were then monitored for the development of CPE and giant cell formation (indicative of active HIV replication). […]

[3] = target: T1, glucosidase I (Bos taurus, UniProt A0A3Q1M9D9); conditions: reported by Schweden et al., Arch. Biochem. Biophys. 248(1), 335-340 (1986); cited from earlier work
T1 sequence (A0A3Q1M9D9 1-839): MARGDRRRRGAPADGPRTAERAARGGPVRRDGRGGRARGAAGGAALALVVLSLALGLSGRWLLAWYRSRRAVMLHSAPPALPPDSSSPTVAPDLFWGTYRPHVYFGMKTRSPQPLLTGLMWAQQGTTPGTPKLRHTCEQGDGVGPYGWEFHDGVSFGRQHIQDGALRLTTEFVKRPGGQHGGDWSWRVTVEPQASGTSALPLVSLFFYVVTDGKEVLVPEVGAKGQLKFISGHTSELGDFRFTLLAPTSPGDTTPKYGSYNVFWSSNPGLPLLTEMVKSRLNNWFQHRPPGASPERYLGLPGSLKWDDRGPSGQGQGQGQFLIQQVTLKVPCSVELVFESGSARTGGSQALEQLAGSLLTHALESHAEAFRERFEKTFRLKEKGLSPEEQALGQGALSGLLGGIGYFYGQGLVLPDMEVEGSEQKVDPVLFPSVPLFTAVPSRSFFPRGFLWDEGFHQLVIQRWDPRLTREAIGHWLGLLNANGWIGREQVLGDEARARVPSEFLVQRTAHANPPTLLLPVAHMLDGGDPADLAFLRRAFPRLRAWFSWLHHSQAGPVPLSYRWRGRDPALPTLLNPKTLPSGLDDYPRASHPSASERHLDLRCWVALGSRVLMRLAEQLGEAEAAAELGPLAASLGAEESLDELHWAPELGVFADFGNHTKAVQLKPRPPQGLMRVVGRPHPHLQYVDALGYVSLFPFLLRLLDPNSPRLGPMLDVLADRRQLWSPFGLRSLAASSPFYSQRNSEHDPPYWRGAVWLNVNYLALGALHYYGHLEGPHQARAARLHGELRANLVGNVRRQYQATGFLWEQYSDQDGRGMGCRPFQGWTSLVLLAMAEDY

Row | SMILES | Estimated Cell Growth Virus-uninfected Day 7 ([1]; Dosage 0.01 mg/ml) | Estimated Cell Growth Virus-uninfected Day 7 ([1]; Dosage 0.05 mg/ml) | Estimated Cell Growth Virus-uninfected Day 7 ([1]; Dosage 0.10 mg/ml) | cytotoxicity [1] | days before CPE expression ([2]; 0.1 mg/ml drug for 55 days of culture, then culture in the absence of drug) | proportion of infected cells in the cultures ([2]; prolonged exposure, 0.1 mg/ml, result in words) | glucosidase I inhibitory activity [3] | Estimated Cell Growth Virus-uninfected Day 7 ([1]; Dosage 0.25 mg/ml) | Estimated Cell Growth Virus-uninfected Day 7 ([1]; Dosage 0.50 mg/ml)
1 | CCCCN1C[C@H](O)[C@@H](O)[C@H](O)[C@H]1CO [BuDNJ, N-n-butyl-deoxynojirimycin] | 1.2x10^6 | 1.2x10^6 | 1.4x10^6 | showed no cytotoxicity over the concentration range used | > 100 days | reduced the proportion of infected cells in the cultures | virtually identical | – | –
2 | CN1C[C@H](O)[C@@H](O)[C@H](O)[C@H]1CO [MeDNJ, N-methyl-deoxynojirimycin] | 1.2x10^6 | 1.2x10^6 | 1.0x10^6 | cytotoxic | – | – | virtually identical | 1.0x10^6 | 5.0x10^6
